Tests used:
[1] = test system: Pseudomonas fluorescens; test: Growth of Pseudomonas fluorescens in nutrient broth with and without sodium ascorbate and metals; format: cell-based; details: 25° C.; for Growth of Pseudomonas fluorescens in nutrient broth: sodium ascorbate 0.2%, metal 88 μM; for effect on the growth of Pseudomonas fluorescens: nutrient broth
Protocol: (§1) To determine the antimicrobial effects of Oxysorb, 10 ml of broth in 16×100 screw-capped tubes were inoculated with diluted, overnight cultures to achieve an initial population of 100 to 1000 cells/ml. Nutrient broth was used for E. coli and Pseudomonas fluorescens; fluid thioglycollate medium was used for Clostridium sporogenes. Following inoculation, sodium ascorbate was added at a level of 0.2%, then 88 μM metal salt (copper gluconate, cobalt chloride, or ferric chloride). Ascorbate, copper, cobalt, and iron solutions were prepared and filter sterilized just prior to use. Tubes were incubated at 25° C. with caps tightened, unless they were placed in anaerobic (Gas Pak) jars. Anaerobically incubated tubes had loose caps to allow for generation of an anaerobic environment in the tube headspace. Samples from two individual tubes were plated periodically.

[2] = test system: E. coli; test: Growth of E. coli in nutrient broth with and without sodium ascorbate and metals; format: cell-based; set-up: Growth of E. coli in nutrient broth: unit not given here; details: 25° C.; for Growth of E. coli in nutrient broth: sodium ascorbate 0.2%, metal 88 μM
Protocol: as §1

[3] = Dissolved oxygen consumption measured with a Clark oxygen electrode; format: physicochemical; details: for oxygen utilization by one component alone / effect of protein on the rate of oxygen removal by Oxysorb: pH 7.4; for effect of chelating agent on oxygen removal by Oxysorb: 1 mM chelating agent, 100 μM copper gluconate, 10 mM sodium ascorbate; for reducing agent in copper-mediated oxygen removal: 1 mM reducing agent, 100 micromolar copper gluconate; for effect of protein on the rate of oxygen removal by Oxysorb: 0.2% ascorbic acid, 40 ppm copper gluconate, with and without 2 mM glycine
Protocol: The oxygen tension was measured in 1 mM sodium ascorbate and 50 mM Tris, pH 7.4 at 25° C. using a Clark oxygen electrode.
Initial rates were measured in 50 micromolar copper sulfate, 1 mM sodium ascorbate, and 50 mM Tris, pH 7.4, at 25° C.
The initial rates were determined in 50 micromolar copper sulfate, 1 mM sodium ascorbate, and 50 mM Tris, pH 7.4 at 10° C., 15° C., 20° C., 25° C., 30° C., 35° C., and 40° C.
The rate of O2 consumption at 25° C. in 10 mM sodium ascorbate, 100 micromolar copper gluconate, 50 mM Tris, pH 7.4, and 1 mM chelating agent was monitored using a Clark electrode.
The rate of O2 consumption at 25° C. in 10 mM sodium ascorbate, 50 mM Tris, pH 7.4, and 100 micromolar transition metal was monitored using a Clark electrode.
The rate of O2 consumption at 25° C. in 100 micromolar copper gluconate, 50 mM Tris, pH 7.4, and 1 mM reducing agent was monitored using a Clark electrode.
Increasing amounts of ovalbumin in the absence and presence of glycine were added to the Oxysorb system and the rate of O2 consumption at 25° C. was monitored using a Clark electrode.
The chelating agents used for this experiment were glycine, L-histidine, phytic acid, and EDTA. Purified water and Tris were dispensed into the vial, and then 1 mM chelating agent and 100 μM copper gluconate were added. Upon stabilization of the oxygen electrode, the ascorbic acid was introduced and the reaction quickly took place.
Another experiment was designed to substitute a variety of transition metals and reducing agents in place of copper and ascorbate. The transition metals were ferric chloride, manganese sulfate, cobalt chloride, and chromium chloride. The final concentration of these metals was 100 micromolar in 10 mM ascorbic acid and 50 mM Tris buffer, pH 7.4. To start the reaction, the metal was added to these solution, and the removal of dissolved oxygen was monitored using a Clark electrode.
The reducing agents substituted for ascorbic acid were sodium sulfite, cysteine, and catechol. The order of addition was purified water, Tris, and 1 mM reducing agent. When the electrode stabilized, the copper gluconate was added.
Experiments were conducted to determine the effect of protein on the reaction of the Oxysorb system. Using a Clark electrode, the oxygen consumption was measured in solutions containing 50 mM Tris, pH 7.4, 0.2% ascorbic acid, 40 ppm copper gluconate, variable amounts of ovalbumin, with and without 2 mM glycine. The order of addition was water, Tris, glycine, copper gluconate, ovalbumin, and ascorbic acid.

[4] = test system: microorganisms in potato water; test: Microbiological evaluation of potato water; details: room temperature
Protocol: Another experiment was conducted to determined if the system of the present invention could delay or prevent textural degradation of potatoes stored in water. Raw potatoes were peeled, cubed, and immersed in water and in solutions of 40 ppm copper gluconate and 0.1% or 0.5% ascorbic acid. The samples were kept in uncovered glass mason jars at room temperature.

[5] = test system: polyphenol oxidase activity in potatoes; test: Browning of pureed potato; details: refrigerated, seven days
Text: A control of water and potato was pureed in a blender and placed into a screw top jar, filled to overflowing to minimize headspace. The same was done to a sample of potato and 40 ppm copper gluconate and 0.1% ascorbic acid in water. The jars were refrigerated and inverted frequently to disperse any foam formed.

[6] = Oxidation of ascorbic acid to dehydroascorbic acid, monitored spectrophotometrically; format: physicochemical; details: 50 micromolar ascorbic acid, 1 micromolar Cu^2+, pH 7.4, 25° C.; 1000 U/ml catalase, 25 U/ml SOD
Protocol: The rate of oxidation at 25° C. in 50 mM Tris, pH 7.4, was monitored spectrophotometrically. […] The rate of oxidation at 25° C. in 50 mM Tris, pH 7.4, was monitored spectrophotometrically. […] Both reactions were carried out at 25° C. in 50 mM Tris, pH 7.4.

[7] = test system: yeast; test: Yeast growth at 25° C. with the oxygen scavenging system; format: cell-based; details: 4-day period, 0.004% copper gluconate, 0.2% sodium ascorbate
[8] = anaerobic incubation (Gas Pak jar)

O=C1O[C@H]([C@@H](O)CO)C([O-])=C1O.[Na+] [Ascorbate, sodium ascorbate]
Growth of Pseudomonas fluorescens in nutrient broth ([1]; Time 0 days): 160
Growth of Pseudomonas fluorescens in nutrient broth ([1]; Time 0.25 days): 170
Growth of Pseudomonas fluorescens in nutrient broth ([1]; Time 1 day): 4.7 × 10^7
Growth of Pseudomonas fluorescens in nutrient broth ([1]; Time 4 days): 7.2 × 10^8
Growth of Pseudomonas fluorescens in nutrient broth ([1]; Time 6 days): 2.7 × 10^8
Growth of E. coli in nutrient broth ([2]; Time 0 days): 350
Growth of E. coli in nutrient broth ([2]; Time 0.25 days): 4600
Growth of E. coli in nutrient broth ([2]; Time 1 day): 1.6 × 10^8
Growth of E. coli in nutrient broth ([2]; Time 2 days): 4.6 × 10^8
Growth of E. coli in nutrient broth ([2]; Time 5 days): 3.8 × 10^8
effect on the growth of E. coli [2, 8]: slightly reduced the maximum population
effect on the growth of E. coli ([2]; sealed tubes, nutrient broth): little effect
oxygen utilization by one component alone [3]: No oxygen utilization

[Cl][Co][Cl] [Co^2+, cobalt chloride]
Growth of Pseudomonas fluorescens in nutrient broth ([1]; Time 0 days): 150
Growth of Pseudomonas fluorescens in nutrient broth ([1]; Time 0.25 days): 65
Growth of Pseudomonas fluorescens in nutrient broth ([1]; Time 1 day): 1.9 × 10^6
Growth of Pseudomonas fluorescens in nutrient broth ([1]; Time 4 days): 5.6 × 10^8
Growth of Pseudomonas fluorescens in nutrient broth ([1]; Time 6 days): 5.5 × 10^7
effect on the growth of Pseudomonas fluorescens [1]: slowed the growth
Growth of E. coli in nutrient broth ([2]; Time 0 days): 430
Growth of E. coli in nutrient broth ([2]; Time 0.25 days): 690
Growth of E. coli in nutrient broth ([2]; Time 1 day): 8.1 × 10^5
Growth of E. coli in nutrient broth ([2]; Time 2 days): 2.2 × 10^6
Growth of E. coli in nutrient broth ([2]; Time 5 days): 4.5 × 10^8
effect on the growth of E. coli ([2]; sealed tubes, nutrient broth): Growth was slowed but not stopped

O=C(O)CN(CCN(CC(=O)O)CC(=O)O)CC(=O)O [EDTA]
effect of chelating agent on oxygen removal by Oxysorb ([3]; pH 7.4, 25° C.): almost completely inhibited

[Cl][Fe]([Cl])[Cl] [Fe^3+, ferric chloride]
Growth of Pseudomonas fluorescens in nutrient broth ([1]; Time 0 days): 130
Growth of Pseudomonas fluorescens in nutrient broth ([1]; Time 0.25 days): 160
Growth of Pseudomonas fluorescens in nutrient broth ([1]; Time 1 day): 6.2 × 10^7
Growth of Pseudomonas fluorescens in nutrient broth ([1]; Time 4 days): 8.1 × 10^7
Growth of Pseudomonas fluorescens in nutrient broth ([1]; Time 6 days): 5.1 × 10^7
effect on the growth of Pseudomonas fluorescens [1]: did not differ from the control
Growth of E. coli in nutrient broth ([2]; Time 0 days): 420
Growth of E. coli in nutrient broth ([2]; Time 0.25 days): 6400
Growth of E. coli in nutrient broth ([2]; Time 1 day): 2.1 × 10^8
Growth of E. coli in nutrient broth ([2]; Time 2 days): 3.4 × 10^8
Growth of E. coli in nutrient broth ([2]; Time 5 days): 1.5 × 10^8
effect on the growth of E. coli ([2]; sealed tubes, nutrient broth): no effect

N[C@@H](Cc1c[nH]cn1)C(=O)O [Histidine, L-histidine]
effect of chelating agent on oxygen removal by Oxysorb ([3]; pH 7.4, 25° C.): some inhibition

O=P(O)(O)O[C@H]1[C@H](OP(=O)(O)O)[C@@H](OP(=O)(O)O)[C@H](OP(=O)(O)O)[C@@H](OP(=O)(O)O)[C@H]1OP(=O)(O)O [Phytic acid, phytic acid]
effect of chelating agent on oxygen removal by Oxysorb ([3]; pH 7.4, 25° C.): slightly slower than the control

O=C1O[C@H]([C@@H](O)CO)C(O)=C1O [ascorbic acid]
reducing agent in copper-mediated oxygen removal ([3]; pH 7.4, 25° C.): most efficient reducing agent

O=S(=O)([O-])[O-].[Cu+2] [copper sulfate]
oxygen utilization by one component alone [3]: No oxygen utilization

N[C@@H](CS)C(=O)O [cysteine]
reducing agent in copper-mediated oxygen removal ([3]; pH 7.4, 25° C.): more reactive than sulfite

NCC(=O)O [glycine]
effect of chelating agent on oxygen removal by Oxysorb ([3]; pH 7.4, 25° C.): faster than that of the control
effect of protein on the rate of oxygen removal by Oxysorb [3]: diminished this protein effect

CC(O)CO (centres unmarked) [propylene glycol]
effect of freezing point depressant on the rate of oxygen removal ([3]; 50 micromolar copper sulfate, 1 mM sodium ascorbate, pH 7.4, 25° C.): not affected significantly

O=S([O-])O.[Na+] [sodium bisulfite]
effect on chemical and microbiological events in potatoes stored in water [4]: no effect at all
browning of pureed potato [5]: this browning does not occur

O=S([O-])[O-].[Na+].[Na+] [sulfite, sodium sulfite]
reducing agent in copper-mediated oxygen removal ([3]; pH 7.4, 25° C.): more reactive than catechol

catalase
effect on oxidation of ascorbic acid in the presence of Cu^2+ [6]: inhibition

copper gluconate [Cu^2+]
Growth of Pseudomonas fluorescens in nutrient broth ([1]; Time 0 days): 140
Growth of Pseudomonas fluorescens in nutrient broth ([1]; Time 0.25 days): 180
Growth of Pseudomonas fluorescens in nutrient broth ([1]; Time 1 day): 9.6 × 10^7
Growth of Pseudomonas fluorescens in nutrient broth ([1]; Time 6 days): 1.6 × 10^8
Growth of E. coli in nutrient broth ([2]; Time 0 days): 510
Growth of E. coli in nutrient broth ([2]; Time 0.25 days): 3100
Growth of E. coli in nutrient broth ([2]; Time 1 day): 4.7 × 10^7
Growth of E. coli in nutrient broth ([2]; Time 2 days): 4.8 × 10^7
Growth of E. coli in nutrient broth ([2]; Time 5 days): 7.3 × 10^6
effect on the growth of E. coli [2, 8]: further suppressed growth
effect on the growth of E. coli ([2]; sealed tubes, nutrient broth): reduced both the growth rate and the maximum population
effect on yeast growth [7]: no toxicity
transition metal as catalyst of oxygen removal ([3]; 100 micromolar metal, 10 mM ascorbic acid, 50 mM Tris pH 7.4): best catalyst

superoxide dismutase
effect on oxidation of ascorbic acid in the presence of Cu^2+ [6]: substantial acceleration

B1: ovalbumin: protein added to the Oxysorb system; binds copper with high affinity (protein, UniProt P01012 2-386, looked up)
Ovalbumin: GSIGAASMEFCFDVFKELKVHHANENIFYCPIAIMSALAMVYLGAKDSTRTQINKVVRFDKLPGFGDSIEAQCGTSVNVHSSLRDILNQITKPNDVYSFSLASRLYAEERYPILPEYLQCVKELYRGGLEPINFQTAADQARELINSWVESQTNGIIRNVLQPSSVDSQTAMVLVNAIVFKGLWEKAFKDEDTQAMPFRVTEQESKPVQMMYQIGLFRVASMASEKMKILELPFASGTMSMLVLLPDEVSGLEQLESIINFEKLTEWTSSNVMEERKIKVYLPRMKMEEKYNLTSVLMAMGITDVFSSSANLSGISSAESLKISQAVHAAHAEINEAGREVVGSAEAGVDAASVSEEFRADHPFLFCIKHIATNAVLFFGRCVSP
effect of protein on the rate of oxygen removal by Oxysorb [3]: greatly decreases the rate of oxygen removal
